Results on six compounds are retold here after US20230295197A1, “STAT5 and STAT6 Degraders and Uses Thereof” (REGENTS OF THE UNIVERSITY OF MICHICAN, priority 2022, published 2023).

Some results are limits rather than exact numbers.

The target of this assay is T1, STAT6 (Homo sapiens, UniProt P42226).
T1 construct: endogenous in cells; host or cells: MOLM-16, KU-812, SKNO1, MB231, L1236
T1 sequence (P42226 1-847): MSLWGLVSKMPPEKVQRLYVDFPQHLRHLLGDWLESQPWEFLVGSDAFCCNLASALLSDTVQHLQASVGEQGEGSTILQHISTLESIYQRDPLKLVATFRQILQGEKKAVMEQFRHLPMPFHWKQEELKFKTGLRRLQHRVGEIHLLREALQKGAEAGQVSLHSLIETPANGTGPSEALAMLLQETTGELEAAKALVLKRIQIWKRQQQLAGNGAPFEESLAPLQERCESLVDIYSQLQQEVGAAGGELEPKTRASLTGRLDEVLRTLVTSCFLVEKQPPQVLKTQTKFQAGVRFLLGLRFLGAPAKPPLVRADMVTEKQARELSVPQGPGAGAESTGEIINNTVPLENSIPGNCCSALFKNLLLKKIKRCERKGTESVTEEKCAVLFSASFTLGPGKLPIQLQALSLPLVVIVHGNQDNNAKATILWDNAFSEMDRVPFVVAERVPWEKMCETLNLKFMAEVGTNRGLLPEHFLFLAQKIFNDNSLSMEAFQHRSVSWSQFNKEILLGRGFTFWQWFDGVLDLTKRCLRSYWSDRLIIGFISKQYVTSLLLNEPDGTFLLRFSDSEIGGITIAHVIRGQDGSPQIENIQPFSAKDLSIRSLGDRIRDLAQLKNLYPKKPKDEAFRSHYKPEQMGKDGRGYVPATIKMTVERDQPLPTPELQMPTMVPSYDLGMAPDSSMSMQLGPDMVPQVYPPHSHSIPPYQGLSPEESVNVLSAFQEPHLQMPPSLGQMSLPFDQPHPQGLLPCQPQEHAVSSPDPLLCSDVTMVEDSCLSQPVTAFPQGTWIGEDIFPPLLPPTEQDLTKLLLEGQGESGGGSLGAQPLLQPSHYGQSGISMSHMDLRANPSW
The assay is described as follows: Immunoblotting (Western blot) analysis of STAT6 degradation efficiency of degraders in treated cells. The assay is classed as cell-based. To be noted: MOLM-16 cells, class symbols, read-out: DC50 S6 MOLM-16. Put shortly: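 Each data point uses roughly one million cells dosed as indicated; pellets are lysed on ice, freeze-thawed, and clarified. Reduced, denatured samples (95 °C, 5 min) run on SDS gels, then membranes receive rabbit mAbs to STAT5 or STAT6 plus mouse anti-GAPDH overnight, followed by dye-labelled secondaries for fluorescence imaging.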
(Immunoblotting shows a protein as a band on a membrane.)
Regarding `CC(C)(C)[C@H](NC(=O)c1cc2cc(C(F)(F)P(=O)(O)O)ccc2s1)C(=O)N1CCN(C(=O)CC(=O)NCC#Cc2cccc3c2C(=O)N(C2CCC(=O)NC2=O)C3=O)C[C@H]1C(=O)N1CCO[C@H](c2ccccc2)C1` (stereo partly drawn) [Compound 507, ((2-(((2S)-1-((2S)-4-(3-((3-(2-(2,6-dioxopiperidin-3-yl)-1,3-dioxoisoindolin-4-yl)prop-2-yn-1-yl)amino)-3-oxopropanoyl)-2-((R)-2-phenylmorpholine-4-carbonyl)piperazin-1-yl)-3,3-dimethyl-1-oxobutan-2-yl)carbamoyl)benzo[b]thiophen-5-yl)difluoromethyl)phosphonic acid], the DC50 is more than 10 µM.

Turning to `CC(C)(C)[C@H](NC(=O)c1cc2cc(C(F)(F)P(=O)(O)O)ccc2s1)C(=O)N1CCN(C(=O)CC(=O)NCC#Cc2ccc3c(c2)C(=O)N(C2CCC(=O)NC2=O)C3=O)C[C@H]1C(=O)N1CCO[C@H](c2ccccc2)C1` (stereo partly drawn) [Compound 508, ((2-(((2S)-1-((2S)-4-(3-((3-(2-(2,6-dioxopiperidin-3-yl)-1,3-dioxoisoindolin-5-yl)prop-2-yn-1-yl)amino)-3-oxopropanoyl)-2-((R)-2-phenylmorpholine-4-carbonyl)piperazin-1-yl)-3,3-dimethyl-1-oxobutan-2-yl)carbamoyl)benzo[b]thiophen-5-yl)difluoromethyl)phosphonic acid], the DC50 was more than 10 µM. As to `CC(C)(C)[C@H](NC(=O)c1cc2cc(C(F)(F)P(=O)(O)O)ccc2s1)C(=O)N1CCN(C(=O)CC(=O)NCCC#Cc2cccc3c2C(=O)N(C2CCC(=O)NC2=O)C3=O)C[C@H]1C(=O)N1CCO[C@H](c2ccccc2)C1` (stereo partly drawn) [Compound 509, ((2-(((2S)-1-((2S)-4-(3-((4-(2-(2,6-dioxopiperidin-3-yl)-1,3-dioxoisoindolin-4-yl)but-3-yn-1-yl)amino)-3-oxopropanoyl)-2-((R)-2-phenylmorpholine-4-carbonyl)piperazin-1-yl)-3,3-dimethyl-1-oxobutan-2-yl)carbamoyl)benzo[b]thiophen-5-yl)difluoromethyl)phosphonic acid], the half-maximal degradation concentration (DC50) was more than 10 µM. The figure for `CC(C)(C)[C@H](NC(=O)c1cc2cc(C(F)(F)P(=O)(O)O)ccc2s1)C(=O)N1CCN(C(=O)CC(=O)NCCC#Cc2ccc3c(c2)C(=O)N(C2CCC(=O)NC2=O)C3=O)C[C@H]1C(=O)N1CCO[C@H](c2ccccc2)C1` (stereo partly drawn) [Compound 510, ((2-(((2S)-1-((2S)-4-(3-((4-(2-(2,6-dioxopiperidin-3-yl)-1,3-dioxoisoindolin-5-yl)but-3-yn-1-yl)amino)-3-oxopropanoyl)-2-((R)-2-phenylmorpholine-4-carbonyl)piperazin-1-yl)-3,3-dimethyl-1-oxobutan-2-yl)carbamoyl)benzo[b]thiophen-5-yl)difluoromethyl)phosphonic acid] is more than 10 µM. As for `CC(C)(C)[C@H](NC(=O)c1cc2cc(C(F)(F)P(=O)(O)O)ccc2s1)C(=O)N1CCN(C(=O)CC(=O)NCCCC#Cc2cccc3c2C(=O)N(C2CCC(=O)NC2=O)C3=O)C[C@H]1C(=O)N1CCO[C@H](c2ccccc2)C1` (stereo partly drawn) [Compound 511, ((2-(((2S)-1-((2S)-4-(3-((5-(2-(2,6-dioxopiperidin-3-yl)-1,3-dioxoisoindolin-4-yl)pent-4-yn-1-yl)amino)-3-oxopropanoyl)-2-((R)-2-phenylmorpholine-4-carbonyl)piperazin-1-yl)-3,3-dimethyl-1-oxobutan-2-yl)carbamoyl)benzo[b]thiophen-5-yl)difluoromethyl)phosphonic acid], the DC50 was in the range of 1 to 10 µM. As for `CC(C)(C)[C@H](NC(=O)c1cc2cc(C(F)(F)P(=O)(O)O)ccc2s1)C(=O)N1CCN(C(=O)CC(=O)NCCCC#Cc2ccc3c(c2)C(=O)N(C2CCC(=O)NC2=O)C3=O)C[C@H]1C(=O)N1CCO[C@H](c2ccccc2)C1` (stereo partly drawn) [Compound 512, ((2-(((25)-1-((2S)-4-(3-((5-(2-(2,6-dioxopiperidin-3-yl)-1,3-dioxoisoindolin-5-yl)pent-4-yn-1-yl)amino)-3-oxopropanoyl)-2-((R)-2-phenylmorpholine-4-carbonyl)piperazin-1-yl)-3,3-dimethyl-1-oxobutan-2-yl)carbamoyl)benzo[b]thiophen-5-yl)difluoromethyl)phosphonic acid], the DC50 was in the range of 0.1 to 1 µM.

By DC50 is commonly meant the concentration giving 50% degradation.
